Assay [1] relates to oligonucleotides containing the screening sequence (SEQ ID NO:601) flanked by a test sequence (SEQ ID NO:605 to SEQ ID NO:613). Type of assay: binding, Herpes Simplex Virus.
Assay [2] has as its system 256 different 4 bp sequences flanking the UL9 recognition site. Format: binding, Herpes Simplex Virus.
A further assay deals with DNA. The settings on record: cited from earlier work; for published binding constant: bulk genomic DNA (average).

Results on five compounds are retold here after patent US6384208B1, “Sequence directed DNA binding molecules compositions and methods” (Genelabs Technologies, Inc., priority 1991, dated 2002).

Entries after “also recorded” stand apart in the source; their conditions may differ. Read-outs that look alike come from different tables or passages of the source. Starred links: 1 amine or outer side, 2 acyl side, 3 side chain; linkers in the order of their positions; H or OH if unused. Positions of bridges follow the written chain, without caps; N, C: chain ends. Non-standard residues stand in square brackets, D forms with d. Residues, ends and D or L forms follow the SMILES beside them. Chains are numbered I, II in the order given. Actinocin(9to1) = Cc1c2oc3c(C)ccc(C(=O)[*:1])c3nc-2c(C(=O)[*:2])c(N)c1=O; NMeV = CN[C@H](C(=O)O)C(C)C; Sar = CNCC(=O)O

As to `COc1cccc2c1C(=O)c1c(O)c3c(c(O)c1C2=O)C[C@@](O)(C(=O)CO)C[C@@H]3O[C@H]1C[C@H](N)[C@H](O)[C@H](C)O1` [Doxorubicin], in assay [1], the “effect on DNA:protein complexes” value is “most DNA:protein complexes are nearly completely disrupted, with UL9 polyT and UL9ATAT showing some DNA still complexed with protein”; the “effect on UL9 binding to the screening sequence” value is reported as “strongly affected; also recorded: more mildly affected; also recorded: effects similar to those observed at 15 μM were also observed”; the “test sequences at which UL9 binding to the screening sequence is preferentially disrupted” value (“test sequences at which UL9 binding” below) was “preferentially disrupts the binding of UL9 to the oligonucleotides UL9 polyT, UL9 GGGC, oriEco2, and oriEco3”.
For the compound `Cc1c2oc3c(C)ccc(C(=O)N[C@@H]4C(=O)N[C@H](C(C)C)C(=O)N5CCC[C@H]5C(=O)N(C)CC(=O)N(C)[C@@H](C(C)C)C(=O)O[C@@H]4C)c3nc-2c(C(=O)N[C@@H]2C(=O)N[C@H](C(C)C)C(=O)N3CCC[C@H]3C(=O)N(C)CC(=O)N(C)[C@@H](C(C)C)C(=O)O[C@@H]2C)c(N)c1=O` [actinomycin D, Actinomycin D] (I: T[dV]P[Sar][NMeV] / II: T[dV]P[Sar][NMeV]; ester I:1-I:C, II:1-II:C; linker I:N-II:N via Actinocin(9to1)), in assay [1], the “test sequences at which UL9 binding” value is “preferentially disrupts the binding of UL9-COOH to the oligonucleotides UL9 CCCG (SEQ ID NO:605) and UL9 GGGC (SEQ ID NO:606); also recorded: preferentially disrupts the binding of UL9 to the oligonucleotides UL9 CCCG and UL9 GGGC”. In assay [2], the dinucleotide preference result is recorded as “GC, particularly in the N1N2 position”; the “mean r % score for all oligonucleotides” value is listed as 67%; the “overall sequence preference in the screen of all 256 sequences” value is “preference for binding GC-rich sequences; also recorded: prefers GC-rich sequences over AT-rich sequences”; the “position effect of a single base in the test site” value is on record as “a single base in any particular position has little impact on the binding”. Besides, in assay [2], the sequence binding preference entry is reported as “a preference for binding GC-rich oligonucleotides has been observed; also recorded: this binding preference is even more apparent”. In addition, the “reported preferred DNA binding sequence” value in the assay on DNA (literature) was “dGdC”.
Consider `Cn1cc(NC(=O)c2cc(NC(=O)c3cc(NC=O)cn3C)cn2C)cc1C(=O)NCCC(=N)N` [distamycin, Distamycin A], for which, in assay [1], the “effect on DNA:protein complexes / free probe” value was “most of the DNA:protein complexes are intact (top band) with free probe appearing in the UL9 polyT and UL9 polyA lanes, and some free probe appearing in the UL9 ATAT lane; also recorded: free probe can be seen in the UL9 polyT and UL9 polyA lanes; also recorded: the DNA:protein in the polyT, UL9 polyA and UL9 ATAT lanes are near completely disrupted while some DNA:protein complexes in the other lanes persist”; the “test sequences at which UL9 binding” value is “preferentially disrupts binding to the test sequences UL9 polyT, UL9 polyA and, to a lesser extent, UL9ATAT; also recorded: preferentially disrupts binding to UL9 polyT, UL9 polyA and UL9 ATAT”. Further, in assay [2], the “Ave. rank (actual) of the 18 sequences of the second consensus sequence” value was 29; the “Average rank (actual) of the 16 sequences of the first consensus sequence” value was 17; the “overall sequence preference in the screen of all 256 sequences” value is recorded as “preference for binding AT-rich sequences”; the “second consensus sequence, favoured bases and order” value was “A/G/C and G/C/A and G/C and A>G=C and C>A=G and G=C”. Also, in the assay with DNA, the published binding constant result is recorded as “about 2×10^5 M^−1”. Moreover, the published binding constant in the assay with DNA (listed as dista) was 200000 M⁻¹. In addition, in the assay on DNA (literature), the “KA (binding to DNA)” value is 200000 M⁻¹ and the “reported preferred DNA binding sequence” value is on record as “non-alternating AT-rich sequences”.
In the case of `CS[C@H]1SC[C@H]2C(=O)N(C)[C@@H](C(C)C)C(=O)OC[C@@H](NC(=O)c3cnc4ccccc4n3)C(=O)N[C@@H](C)C(=O)N(C)[C@@H]1C(=O)N(C)[C@@H](C(C)C)C(=O)OC[C@@H](NC(=O)c1cnc3ccccc3n1)C(=O)N[C@@H](C)C(=O)N2C` [echinomycin], the “reported preferred DNA binding sequence” value in the assay with DNA (literature) is “[(A/T)CGT]/[ACG(A/T)]”.
With calicheamicin, the “reported preferred DNA binding sequence” value with DNA (literature) is listed as “TCCT/AGGA”.
